# Experimental data as given in PubChem BioAssay (NCI).
#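 Following 48 hours of exposure in 96-well plates, responses at five concentrations were used to interpolate endpoints linearly. TGI is the concentration that stops growth completely.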
# What was measured:
# Assay in all cases: NCI anticancer screen, dose series, 48 h
# 786-0 renal = tested on: 786-0 renal
# A498 renal = tested on: A498 renal
# A549 NSCLC = tested on: A549 NSCLC
# ACHN renal = tested on: ACHN renal
# BT-549 breast = tested on: BT-549 breast
# CAKI-1 renal = tested on: CAKI-1 renal
# CCRF-CEM leukemia = tested on: CCRF-CEM leukemia
# COLO 205 colon = tested on: COLO 205 colon
# DU-145 prostate = tested on: DU-145 prostate
# EKVX NSCLC = tested on: EKVX NSCLC
# HCC-2998 colon = tested on: HCC-2998 colon
# HCT-116 colon = tested on: HCT-116 colon
# HCT-15 colon = tested on: HCT-15 colon
# HL-60(TB) leukemia = tested on: HL-60(TB) leukemia
# HOP-62 NSCLC = tested on: HOP-62 NSCLC
# HOP-92 NSCLC = tested on: HOP-92 NSCLC
# HS 578T breast = tested on: HS 578T breast
# HT29 colon = tested on: HT29 colon
# IGROV1 ovarian = tested on: IGROV1 ovarian
# K-562 leukemia = tested on: K-562 leukemia
# KM12 colon = tested on: KM12 colon
# LOX IMVI melanoma = tested on: LOX IMVI melanoma
# M14 melanoma = tested on: M14 melanoma
# MALME-3M melanoma = tested on: MALME-3M melanoma
# MCF7 breast = tested on: MCF7 breast
# MDA-MB-231 breast = tested on: MDA-MB-231 breast
# MDA-MB-435 = tested on: MDA-MB-435
# MDA-N = tested on: MDA-N
# MOLT-4 leukemia = tested on: MOLT-4 leukemia
# NCI-H226 lung = tested on: NCI-H226 lung
# NCI-H23 lung = tested on: NCI-H23 lung
# NCI-H460 lung = tested on: NCI-H460 lung
# NCI-H522 lung = tested on: NCI-H522 lung
# NCI/ADR-RES ovarian = tested on: NCI/ADR-RES ovarian
# OVCAR-3 ovarian = tested on: OVCAR-3 ovarian
# OVCAR-4 ovarian = tested on: OVCAR-4 ovarian
# OVCAR-5 ovarian = tested on: OVCAR-5 ovarian
# OVCAR-8 ovarian = tested on: OVCAR-8 ovarian
# PC-3 prostate = tested on: PC-3 prostate
# RPMI-8226 leukemia = tested on: RPMI-8226 leukemia
# RXF 393 renal = tested on: RXF 393 renal
# SF-268 CNS = tested on: SF-268 CNS
# SF-295 CNS = tested on: SF-295 CNS
# SF-539 CNS = tested on: SF-539 CNS
# SK-MEL-2 melanoma = tested on: SK-MEL-2 melanoma
# SK-MEL-28 melanoma = tested on: SK-MEL-28 melanoma
# SK-MEL-5 melanoma = tested on: SK-MEL-5 melanoma
# SK-OV-3 ovarian = tested on: SK-OV-3 ovarian
# SN12C renal = tested on: SN12C renal
# SNB-19 CNS = tested on: SNB-19 CNS
# SNB-75 CNS = tested on: SNB-75 CNS
# SR leukemia = tested on: SR leukemia
# SW-620 colon = tested on: SW-620 colon
# T-47D breast = tested on: T-47D breast
# TK-10 renal = tested on: TK-10 renal
# U251 CNS = tested on: U251 CNS
# UACC-257 melanoma = tested on: UACC-257 melanoma
# UACC-62 melanoma = tested on: UACC-62 melanoma
# UO-31 renal = tested on: UO-31 renal
smiles,measurement,setting,value
Cc1cc(C)c2c(=O)cc(-c3ccc(Cl)cc3)[nH]c2n1,TGI,786-0 renal,> 100 µM
same,TGI,A498 renal,> 100 µM
same,TGI,A549 NSCLC,> 100 µM
same,TGI,ACHN renal,> 100 µM
same,TGI,BT-549 breast,99.4 µM
same,TGI,CAKI-1 renal,> 55.4 µM
same,TGI,CCRF-CEM leukemia,> 100 µM
same,TGI,COLO 205 colon,> 55.6 µM
same,TGI,DU-145 prostate,> 100 µM
same,TGI,EKVX NSCLC,> 100 µM
same,TGI,HCC-2998 colon,> 100 µM
same,TGI,HCT-116 colon,> 63.4 µM
same,TGI,HCT-15 colon,> 100 µM
same,TGI,HL-60(TB) leukemia,> 83 µM
same,TGI,HOP-62 NSCLC,> 100 µM
same,TGI,HOP-92 NSCLC,> 100 µM
same,TGI,HS 578T breast,> 100 µM
same,TGI,HT29 colon,> 48.5 µM
same,TGI,IGROV1 ovarian,> 100 µM
same,TGI,K-562 leukemia,> 71.4 µM
same,TGI,KM12 colon,> 100 µM
same,TGI,LOX IMVI melanoma,> 100 µM
same,TGI,M14 melanoma,> 100 µM
same,TGI,MALME-3M melanoma,> 59.3 µM
same,TGI,MCF7 breast,> 100 µM
same,TGI,MDA-MB-231 breast,> 51.8 µM
same,TGI,MDA-MB-435,27.6 µM
same,TGI,MDA-N,25 µM
same,TGI,MOLT-4 leukemia,> 100 µM
same,TGI,NCI-H226 lung,> 100 µM
same,TGI,NCI-H23 lung,> 100 µM
same,TGI,NCI-H460 lung,> 100 µM
same,TGI,NCI-H522 lung,> 100 µM
same,TGI,NCI/ADR-RES ovarian,> 74.3 µM
same,TGI,OVCAR-3 ovarian,> 100 µM
same,TGI,OVCAR-4 ovarian,> 100 µM
same,TGI,OVCAR-5 ovarian,> 100 µM
same,TGI,OVCAR-8 ovarian,> 100 µM
same,TGI,PC-3 prostate,> 50.7 µM
same,TGI,RPMI-8226 leukemia,> 100 µM
same,TGI,RXF 393 renal,> 100 µM
same,TGI,SF-268 CNS,> 100 µM
same,TGI,SF-295 CNS,> 73.3 µM
same,TGI,SF-539 CNS,> 100 µM
same,TGI,SK-MEL-2 melanoma,> 100 µM
same,TGI,SK-MEL-28 melanoma,> 75.2 µM
same,TGI,SK-MEL-5 melanoma,> 74.2 µM
same,TGI,SK-OV-3 ovarian,> 100 µM
same,TGI,SN12C renal,> 100 µM
same,TGI,SNB-19 CNS,> 100 µM
same,TGI,SNB-75 CNS,> 65 µM
same,TGI,SR leukemia,> 100 µM
same,TGI,SW-620 colon,> 100 µM
same,TGI,T-47D breast,> 100 µM
same,TGI,TK-10 renal,> 100 µM
same,TGI,U251 CNS,> 100 µM
same,TGI,UACC-257 melanoma,83.1 µM
same,TGI,UACC-62 melanoma,> 100 µM
same,TGI,UO-31 renal,> 93.9 µM
COc1cccc2c1C(=O)C(=O)c1c-2oc(=O)c2cc(C)cc(OC)c12,TGI,786-0 renal,> 75 µM
same,TGI,A498 renal,> 75 µM
same,TGI,A549 NSCLC,> 75 µM
same,TGI,ACHN renal,> 75 µM
same,TGI,BT-549 breast,26 µM
same,TGI,CAKI-1 renal,> 75 µM
same,TGI,CCRF-CEM leukemia,> 75 µM
same,TGI,COLO 205 colon,> 75 µM
same,TGI,DU-145 prostate,27.9 µM
same,TGI,EKVX NSCLC,> 75 µM
same,TGI,HCC-2998 colon,37.6 µM
same,TGI,HCT-116 colon,> 75 µM
same,TGI,HCT-15 colon,27.7 µM
same,TGI,HL-60(TB) leukemia,49.9 µM
same,TGI,HOP-62 NSCLC,32.4 µM
same,TGI,HOP-92 NSCLC,> 75 µM
same,TGI,HS 578T breast,55.1 µM
same,TGI,HT29 colon,> 75 µM
same,TGI,IGROV1 ovarian,32 µM
same,TGI,K-562 leukemia,> 75 µM
same,TGI,KM12 colon,53.9 µM
same,TGI,LOX IMVI melanoma,26.5 µM
same,TGI,M14 melanoma,> 75 µM
same,TGI,MALME-3M melanoma,> 75 µM
same,TGI,MCF7 breast,72.5 µM
same,TGI,MDA-MB-231 breast,70.6 µM
same,TGI,MDA-MB-435,26.1 µM
same,TGI,MDA-N,38.7 µM
same,TGI,MOLT-4 leukemia,74.3 µM
same,TGI,NCI-H226 lung,> 75 µM
same,TGI,NCI-H23 lung,58.4 µM
same,TGI,NCI-H460 lung,> 75 µM
same,TGI,NCI-H522 lung,26.5 µM
same,TGI,NCI/ADR-RES ovarian,31.7 µM
same,TGI,OVCAR-3 ovarian,27.2 µM
same,TGI,OVCAR-4 ovarian,26.7 µM
same,TGI,OVCAR-5 ovarian,> 75 µM
same,TGI,OVCAR-8 ovarian,30.6 µM
same,TGI,PC-3 prostate,> 75 µM
same,TGI,RPMI-8226 leukemia,62.4 µM
same,TGI,RXF 393 renal,42.8 µM
same,TGI,SF-268 CNS,41.8 µM
same,TGI,SF-295 CNS,> 75 µM
same,TGI,SF-539 CNS,> 75 µM
same,TGI,SK-MEL-2 melanoma,35.1 µM
same,TGI,SK-MEL-28 melanoma,> 75 µM
same,TGI,SK-MEL-5 melanoma,35.6 µM
same,TGI,SK-OV-3 ovarian,> 75 µM
same,TGI,SN12C renal,> 75 µM
same,TGI,SNB-19 CNS,> 75 µM
same,TGI,SNB-75 CNS,55.7 µM
same,TGI,SR leukemia,> 75 µM
same,TGI,SW-620 colon,> 75 µM
same,TGI,T-47D breast,> 75 µM
same,TGI,TK-10 renal,> 75 µM
same,TGI,U251 CNS,23.2 µM
same,TGI,UACC-257 melanoma,32.4 µM
same,TGI,UACC-62 melanoma,> 75 µM
same,TGI,UO-31 renal,> 75 µM
c1ccc(N/N=C2\CC(c3ccccc3)Oc3ccccc32)cc1 (stereo unspecified),TGI,786-0 renal,66.8 µM
same,TGI,A498 renal,> 100 µM
same,TGI,A549 NSCLC,> 100 µM
same,TGI,ACHN renal,> 100 µM
same,TGI,BT-549 breast,> 100 µM
same,TGI,CAKI-1 renal,> 100 µM
same,TGI,CCRF-CEM leukemia,> 100 µM
same,TGI,COLO 205 colon,> 100 µM
same,TGI,DU-145 prostate,> 100 µM
same,TGI,EKVX NSCLC,83.9 µM
same,TGI,HCC-2998 colon,> 100 µM
same,TGI,HCT-116 colon,> 100 µM
same,TGI,HCT-15 colon,> 100 µM
same,TGI,HL-60(TB) leukemia,> 100 µM
same,TGI,HOP-62 NSCLC,> 100 µM
same,TGI,HOP-92 NSCLC,> 100 µM
same,TGI,HS 578T breast,> 100 µM
same,TGI,HT29 colon,> 100 µM
same,TGI,IGROV1 ovarian,> 100 µM
same,TGI,K-562 leukemia,> 100 µM
same,TGI,KM12 colon,> 100 µM
same,TGI,LOX IMVI melanoma,> 100 µM
same,TGI,M14 melanoma,> 100 µM
same,TGI,MALME-3M melanoma,> 100 µM
same,TGI,MCF7 breast,> 100 µM
same,TGI,MDA-MB-231 breast,> 100 µM
same,TGI,MDA-MB-435,> 100 µM
same,TGI,MDA-N,> 100 µM
same,TGI,MOLT-4 leukemia,> 100 µM
same,TGI,NCI-H226 lung,> 100 µM
same,TGI,NCI-H23 lung,> 100 µM
same,TGI,NCI-H460 lung,> 100 µM
same,TGI,NCI-H522 lung,53.6 µM
same,TGI,NCI/ADR-RES ovarian,> 100 µM
same,TGI,OVCAR-3 ovarian,> 100 µM
same,TGI,OVCAR-4 ovarian,> 100 µM
same,TGI,OVCAR-5 ovarian,> 100 µM
same,TGI,OVCAR-8 ovarian,> 100 µM
same,TGI,PC-3 prostate,> 100 µM
same,TGI,RXF 393 renal,75.3 µM
same,TGI,SF-268 CNS,> 100 µM
same,TGI,SF-295 CNS,> 100 µM
same,TGI,SF-539 CNS,> 100 µM
same,TGI,SK-MEL-2 melanoma,> 100 µM
same,TGI,SK-MEL-28 melanoma,> 100 µM
same,TGI,SK-MEL-5 melanoma,> 100 µM
same,TGI,SK-OV-3 ovarian,> 100 µM
same,TGI,SN12C renal,> 100 µM
same,TGI,SNB-19 CNS,> 100 µM
same,TGI,SNB-75 CNS,75.2 µM
same,TGI,SR leukemia,> 100 µM
same,TGI,SW-620 colon,> 100 µM
same,TGI,T-47D breast,> 100 µM
same,TGI,TK-10 renal,> 100 µM
same,TGI,U251 CNS,> 100 µM
same,TGI,UACC-257 melanoma,> 100 µM
same,TGI,UACC-62 melanoma,> 100 µM
same,TGI,UO-31 renal,> 100 µM
